The test system of assay [1] is HT-29. The assay is described as follows: Antiproliferative activity against human HT-29 cells assessed as inhibition of cell growth incubated for 48 hrs by MTT assay. The format is functional, cell-based. To be noted: HT-29, 48 h. In general terms: Formazan colour is commonly taken as a measure of viable cells.
The subject of another assay is MCF7. The assay is described as follows: Antiproliferative activity against human MCF7 cells assessed as inhibition of cell growth incubated for 48 hrs by MTT assay. The assay is classed as functional, cell-based. The note with it: MCF7, 48 h.
Assay [2] relates to HT-29. The assay is described as follows: Induction of cell cycle arrest in human HT-29 cells assessed as accumulation of cells at G2/M phase incubated for 48 hrs by propidium iodide staining based flow cytometric analysis. The format is functional.
Assay [3] concerns HT-29. The assay is described as follows: Induction of cell cycle arrest in human HT-29 cells assessed as accumulation of cells at G2/M phase at 4 uM incubated for 48 hrs by propidium iodide staining based flow cytometric analysis relative to control. The format is functional. A general note: In flow cytometry, cells or beads pass a laser one at a time.
Assay [4] has as its system HT-29. Kind of assay: Induction of cell cycle arrest in human HT-29 cells assessed as […] of CDK1 expression at 0.5 to 4 uM incubated for 48 hrs by Western blotting analysis. The assay is classed as functional, cell-based. The note with it: dose 0.5-4 µM. In general terms: Immunoblotting shows a protein as a band on a membrane.
The test system of assay [5] is HT-29. The assay is described as follows: Induction of ferroptosis in human HT-29 cells assessed as increase in intracellular lipid peroxidation accumulation incubated for 48 hrs by C11 BODIPY 581/591 staining based flow cytometry. The format is functional, cell-based.
In assay [6] the test system is HT-29. The assay is described as follows: Induction of ferroptosis in human HT-29 cells assessed as decrease in GPX4 expression incubated for 48 hrs by Western blotting analysis. The format is functional, cell-based.
Assay [7] relates to HT-29. The assay is described as follows: Induction of ferroptosis in human HT-29 cells assessed as increase in intracellular iron level incubated for 48 hrs in presence of ferroptosis inhibitor deferoxamine. The format is functional, cell-based.
Assay [8] concerns HT-29. Kind of assay: Induction of ferroptosis in human HT-29 cells assessed as increase in intracellular malondialdehyde accumulation incubated for 48 hrs in presence of ferroptosis inhibitor deferoxamine. The format is functional, cell-based.
In assay [9] the test system is HT-29. The assay is described as follows: Induction of ferroptosis in human HT-29 cells assessed as increase in intracellular malondialdehyde accumulation incubated for 48 hrs in presence of ferroptosis inhibitor CPX. The format is functional, cell-based.
The test system of assay [10] is HT-29. Kind of assay: Induction of ferroptosis in human HT-29 cells assessed as mitochondrial morphological change incubated for 48 hrs by transmission electron microscopic analysis. The assay is classed as functional, cell-based.
Assay [11] relates to HT-29. The assay is described as follows: Induction of ferroptosis in human HT-29 cells assessed as increase in mitochondrial membrane density incubated for 48 hrs by transmission electron microscopic analysis. The format is functional, cell-based.
The subject of assay [12] is HT-29. Kind of assay: Induction of autophagy in human HT-29 cells assessed as increase in MDC positive cells incubated for 48 hrs by MDC staining based flow cytometric analysis. The assay is classed as functional, cell-based.
The test system of assay [13] is HT-29. The assay is described as follows: Induction of autophagy in human HT-29 cells assessed as upregulation of ATG5 protein expression incubated for 48 hrs by Western blotting analysis. The format is functional, cell-based.
Assay [14] concerns HT-29. The assay is described as follows: Induction of ferroptosis in human HT-29 cells assessed as increase in intracellular iron level incubated for 48 hrs in presence of autophagy inhibitor 3-methyladenine. The assay is classed as functional, cell-based.
Assay [15] deals with HT-29. Kind of assay: Induction of ferroptosis in human HT-29 cells assessed as increase in intracellular malondialdehyde accumulation incubated for 48 hrs in presence of autophagy inhibitor 3-methyladenine. The assay is classed as functional, cell-based.
For assay [16], the system named is HT-29. Kind of assay: Induction of ferroptosis in human HT-29 cells assessed as increase in intracellular lipid peroxidation accumulation incubated for 48 hrs in presence of ROS scavenger NAC by C11 BODIPY 581/591 staining based flow cytometry. The format is functional, cell-based.
A further assay concerns Cell membrane. Kind of assay: Induction of mitochondrial membrane potential loss in human HT-29 cells assessed as decrease in orange-red fluorescence incubated for 48 hrs by JC-1 staining based flow cytometry. The assay is classed as cell membranes.

Here are results for one molecule from ChEMBL document CHEMBL5505995, “Discovery of novel urea derivatives as ferroptosis and autophagy inducer for human colon cancer treatment” (Eur J Med Chem, 2024).

Activity calls are given as the source filed them. The rule behind the calls is not given here.

For `COc1ccc2c(c1)NCCN2C(=O)NCCCl`, the values for the IC50 with HT-29 [1] and in the assay with MCF7 were 1.97 µM and 7.01 µM, respectively. The Activity entry in the assay on HT-29 [2] is “Dose-Dependent Effect”; with HT-29 [3] it was >80%; with HT-29 [5] it was “Dose-Dependent Effect”; in the assay with HT-29 [6] it was “Dose-Dependent Effect”; in the assay on HT-29 [12] it was “Dose-Dependent Effect”; in the assay with HT-29 [13], “Dose-Dependent Effect”. Besides, in the assay on Cell membrane, the Activity entry was “Dose-Dependent Effect”. The result in the assay on HT-29 [4], in the assay with HT-29 [10], with HT-29 [11], with HT-29 [14] and with HT-29 [15] was Active. Also, the result in the assay with HT-29 [7], in the assay on HT-29 [8], with HT-29 [9] and in the assay with HT-29 [16] was inactive.

As usually defined, the IC50 is the concentration that inhibits the measured activity by half.
